Assay results published in the CheMixHub viscosity set.

Assay: xn = mol fraction of the nth substance listed

CC(C)NC(C)C + CCCCCCCCCCO
viscosity [mPa·s], 101 kPa
Conditions | 298.15 K | 303.15 K | 308.15 K
x1 = 0.0531 | 9.942 | 8.148 | 6.888
x1 = 0.1065 | 8.911 | 7.421 | 6.317
x1 = 0.1557 | 8.093 | 6.67 | 5.66
x1 = 0.2072 | 7.186 | 5.835 | 4.947
x1 = 0.2506 | 6.335 | 5.168 | 4.413
x1 = 0.3127 | 5.184 | 4.271 | 3.777
x1 = 0.4084 | 3.737 | 3.133 | 2.732
x1 = 0.5054 | 2.653 | 2.228 | 2.059
x1 = 0.6066 | 1.752 | 1.522 | 1.375
x1 = 0.7056 | 1.183 | 1.059 | 0.956
x1 = 0.8036 | 0.838 | 0.75 | 0.702
x1 = 0.853 | 0.689 | 0.628 | 0.587
x1 = 0.9073 | 0.531 | 0.494 | 0.467
x1 = 0.9521 | 0.459 | 0.43 | 0.358

CCCCCCn1cc[n+](C)c1.[Cl-] + CN1CCCC1=O
100 kPa
Conditions | viscosity [mPa·s]
293.15 K, x1 = 0.0917 | 4.165
293.15 K, x1 = 0.3673 | 49.65
298.15 K, x1 = 0.1861 | 8.485
303.15 K, x1 = 0.3673 | 31.75
308.15 K, x1 = 0.1861 | 6.465

CC(C)[C@H](NC(=O)[C@H](C)N)C(=O)O + O
viscosity [mPa·s], 101 kPa
Conditions | x1 = 3.62e-05 | x1 = 7.46e-05 | x1 = 0.000109 | x1 = 0.000142 | x1 = 0.0001835 | x1 = 0.0002124 | x1 = 0.0002514 | x1 = 0.0002793 | x1 = 0.0003251 | x1 = 0.0003549
305.15 K | 0.7756 | 0.7779 | 0.7783 | 0.7805 | 0.7822 | 0.7866 | 0.7955 | 0.8038 | 0.8095 | 0.8143
310.15 K | 0.7078 | 0.7083 | 0.7121 | 0.7125 | 0.7162 | 0.7192 | 0.7239 | 0.7284 | 0.7327 | 0.7351
315.15 K | 0.647 | 0.6501 | 0.6523 | 0.6554 | 0.6591 | 0.6601 | 0.6623 | 0.6675 | 0.6689 | 0.6701

C=C(C)C(=O)OCCCC + CC#N
viscosity [mPa·s], 101 kPa
Conditions | 298.15 K | 303.15 K | 308.15 K | 313.15 K | 318.15 K
x2 = 0.0681 | 0.8436 | 0.7784 | 0.7223 | 0.6777 | 0.6423
x2 = 0.1359 | 0.8101 | 0.7487 | 0.6958 | 0.6537 | 0.6202
x2 = 0.1976 | 0.7793 | 0.7213 | 0.6713 | 0.6314 | 0.5995
x2 = 0.2728 | 0.7411 | 0.6872 | 0.6407 | 0.6035 | 0.5735
x2 = 0.3442 | 0.7043 | 0.6543 | 0.6111 | 0.5764 | 0.5483
x2 = 0.4143 | 0.6677 | 0.6215 | 0.5815 | 0.5492 | 0.5229
x2 = 0.4658 | 0.6405 | 0.5971 | 0.5594 | 0.5289 | 0.5039
x2 = 0.5243 | 0.6094 | 0.5691 | 0.534 | 0.5055 | 0.482
x2 = 0.5649 | 0.5876 | 0.5495 | 0.5162 | 0.4891 | 0.4665
x2 = 0.639 | 0.5475 | 0.5133 | 0.4834 | 0.4587 | 0.4379
x2 = 0.7112 | 0.508 | 0.4776 | 0.4508 | 0.4285 | 0.4095
x2 = 0.7836 | 0.468 | 0.4413 | 0.4178 | 0.3978 | 0.3805
x2 = 0.8558 | 0.4277 | 0.4048 | 0.3844 | 0.3668 | 0.3512
x2 = 0.928 | 0.3871 | 0.3679 | 0.3506 | 0.3353 | 0.3214

OCCO + CCCO
Conditions | viscosity [mPa·s]
298.15 K, 101 kPa, x1 = 0.442 | 4.972
298.15 K, 101.33 kPa, x1 = 0.0111 | 2.005
298.15 K, 101.33 kPa, x1 = 0.0207 | 2.055
298.15 K, 101.33 kPa, x1 = 0.0321 | 2.115
298.15 K, 101.33 kPa, x1 = 0.0482 | 2.198
298.15 K, 101.33 kPa, x1 = 0.0722 | 2.331
298.15 K, 101.33 kPa, x1 = 0.0979 | 2.467
298.15 K, 101.33 kPa, x1 = 0.1442 | 2.723
298.15 K, 101.33 kPa, x1 = 0.1912 | 3.012
298.15 K, 101.33 kPa, x1 = 0.2372 | 3.32
298.15 K, 101.33 kPa, x1 = 0.2938 | 3.751
298.15 K, 101.33 kPa, x1 = 0.345 | 4.192
298.15 K, 101.33 kPa, x1 = 0.3886 | 4.617
298.15 K, 101.33 kPa, x1 = 0.4295 | 5.053
298.15 K, 101.33 kPa, x1 = 0.4681 | 5.512
298.15 K, 101.33 kPa, x1 = 0.5096 | 6.052
298.15 K, 101.33 kPa, x1 = 0.5452 | 6.565
298.15 K, 101.33 kPa, x1 = 0.5843 | 7.175
298.15 K, 101.33 kPa, x1 = 0.6533 | 8.397
298.15 K, 101.33 kPa, x1 = 0.6993 | 9.322
298.15 K, 101.33 kPa, x1 = 0.7522 | 10.5
298.15 K, 101.33 kPa, x1 = 0.7998 | 11.68
298.15 K, 101.33 kPa, x1 = 0.84 | 12.75
298.15 K, 101.33 kPa, x1 = 0.8875 | 14.13
298.15 K, 101.33 kPa, x1 = 0.918 | 15.08
298.15 K, 101.33 kPa, x1 = 0.9609 | 16.5
298.15 K, 101.33 kPa, x2 = 0.0188 | 17.2
308.15 K, 101 kPa, x1 = 0.442 | 3.67
318.15 K, 101 kPa, x1 = 0.442 | 2.755
